Test results: US4540708A, “Sulfenyl carbamate derivatives and insecticidal compositions containing the same” (priority 1982, dated 1985)
Where two headings read alike, the source gives them in different places.

Legend:
[1] = system: mites, eelworms and other agricultural and forestry noxious insects and household noxious insects; details: known compounds, background; cited from earlier work
warm-blooded animals = details: known compounds, background; cited from earlier work
[2] = system: tobacco cutworm (Spodoptera litura); test: Test Example 1: mortality of third-instar larvae of tobacco cutworm on cabbage, 3 days; assay type: in vivo; details: 72 h
Description: Ten third-instar larvae of tobacco cutworm (Spodoptera litura) were placed on a cabbage (one-month-old seedling) planted in a pot, and a 50% emulsion of the compound to be tested was diluted to a specified concentration and applied to the leaves of the plant to fully wet them. The test compound of each specified concentration was tested on two pots.

[3] = system: green rice leafhopper (Nephotettix cincticeps); test: Test Example 2: mortality of female adults of green rice leafhopper on paddy rice, 3 days; assay type: in vivo; details: 72 h
Description: An emulsion of specified concentration was prepared from a 50% wettable powder of the compound to be tested and applied to the leaves of paddy rice (one-month-old seedlings) planted in a pot to fully wet the leaves. After the emulsion had been dried, the pot was covered with a net cage, into which 10 female adults of green rice leafhopper (Nephotettix cincticeps) were released. The compound of each specified concentration was tested on two pots.

[4] = Test Example 4: acute toxicity by oral administration in male mice (Litchfield-Wilcoxon); design: unit not given here; details: mouse, in vivo, mortality on the seventh day
Description: Compounds of this invention were tested on male mice for acute toxicity by oral administration.

[5] = 125 ppm active ingredient, 3 days, read-out: Mortality
[6] = 250 ppm active ingredient, 3 days, read-out: Mortality
[7] = 500 ppm active ingredient, 3 days, read-out: Mortality
[8] = 1000 ppm active ingredient, 3 days, read-out: Mortality
[9] = 200 ppm active ingredient, 3 days, read-out: Mortality
[10] = 400 ppm active ingredient, 3 days, read-out: Mortality
[11] = 800 ppm active ingredient, 3 days, read-out: Mortality

| SMILES | insecticidal activity (in words) [1] | toxicity to warm-blooded animals (in words) (warm-blooded animals) | mortality at 125 ppm [2, 5] | mortality at 250 ppm [2, 6] | mortality at 125 ppm [2] | mortality at 250 ppm [2] | mortality at 500 ppm [2] | mortality at 1000 ppm [2] | mortality at 200 ppm [3] | mortality at 400 ppm [3] | mortality at 800 ppm [3] | LD50 at 168 h [4] | mortality at 500 ppm [2, 7] | mortality at 1000 ppm [2, 8] | mortality at 200 ppm [3, 9] | mortality at 400 ppm [3, 10] | mortality at 800 ppm [3, 11] |
| --- | --- | --- | --- | --- | --- | --- | --- | --- | --- | --- | --- | --- | --- | --- | --- | --- | --- |
| CNC(=O)Oc1cccc2c1OC(C)(C)C2 [Control 1, 2,3dihydro-2,2-dimethylbenzofuran-7-yl-N--methylcarbamate] | high insecticidal activity | high toxicity to warm-blooded animals |  |  |  |  |  |  |  |  |  |  |  |  |  |  |  |
| CNC(=O)ON=C(C)SC [Control*, S--methyl N--[(methylcarbamoyl)oxy]thioacetimidate] |  | high toxicity to warm-blooded animals |  |  |  |  |  |  |  |  |  |  |  |  |  |  |  |
| CNC(=O)ON=C(C)SC [Control*] |  |  | 85% | 90% |  |  |  |  |  |  |  |  |  |  |  |  |  |
| COCCCN(CCC(=O)OC)SN(C)C(=O)Oc1cccc2c1OC(C)(C)C2 [Example 1, 2,3-dihydro-2,2-dimethylbenzofuran-7-yl N-[N-(3-methoxypropyl)-N-methoxycarbonylethylaminosulfenyl]N-methyl carbamate] |  |  |  |  | 40% | 65% | 80% | 90% | 70% | 90% | 100% |  |  |  |  |  |  |
| COCCN(CCC#N)SN(C)C(=O)Oc1cccc2c1OC(C)(C)C2 [Example 2, 2,3-dihydro-2,2-dimethylbenzofuran-7-yl N-[N-(2-methoxyethyl)-N-cyanoethylaminosulfenyl]N-methyl-carbamate] |  |  |  |  | 40% | 55% | 70% | 85% | 65% | 85% | 100% | 98000 |  |  |  |  |  |
| COCCN(CCC(=O)OC)SN(C)C(=O)ON=C(C)SC [Example 3, S-methyl N-[{N-methyl-N-(N-methoxyethyl-N-methoxycarbonylethylaminosulfenyl)carbamoyl}oxy]-thioacetimidate] |  |  | 55% | 70% |  |  |  |  |  |  |  |  | 85% | 90% | 65% | 90% | 100% |
| COCCN(CC(=O)OC)SN(C)C(=O)Oc1cccc2c1OC(C)(C)C2 [Example 4] |  |  |  |  | 45% | 65% | 80% | 90% | 75% | 95% | 100% | 90000 |  |  |  |  |  |
| COCCN(CC#N)SN(C)C(=O)Oc1cccc2c1OC(C)(C)C2 [Example 5] |  |  |  |  | 50% | 70% | 80% | 90% | 70% | 90% | 100% | 68000 |  |  |  |  |  |
| CCOC(=O)CN(CCCOC)SN(C)C(=O)Oc1cccc2c1OC(C)(C)C2 [Example 6] |  |  |  |  | 55% | 70% | 80% | 90% | 70% | 95% | 100% |  |  |  |  |  |  |
| COC(=O)CCN(CCCOc1ccccc1)SN(C)C(=O)Oc1cccc2c1OC(C)(C)C2 [Example 7] |  |  |  |  | 40% | 60% | 75% | 85% | 60% | 80% | 100% |  |  |  |  |  |  |
| CCOCCN(CCC(=O)OC)SN(C)C(=O)Oc1cccc2c1OC(C)(C)C2 [Example 8] |  |  |  |  | 40% | 60% | 80% | 90% | 75% | 90% | 100% |  |  |  |  |  |  |
| COC(=O)CCN(CCOC(C)C)SN(C)C(=O)Oc1cccc2c1OC(C)(C)C2 [Example 9] |  |  |  |  | 40% | 60% | 80% | 90% | 75% | 90% | 100% |  |  |  |  |  |  |
| COC(=O)CCN(CCOC1CCCCC1)SN(C)C(=O)Oc1cccc2c1OC(C)(C)C2 [Example 10] |  |  |  |  | 35% | 50% | 70% | 85% | 65% | 85% | 100% |  |  |  |  |  |  |
| CC(C)OCCCN(CCC#N)SN(C)C(=O)Oc1cccc2c1OC(C)(C)C2 [Example 11] |  |  |  |  | 35% | 50% | 70% | 80% | 70% | 90% | 100% |  |  |  |  |  |  |
| CCCCOC(=O)CCN(CCOC)SN(C)C(=O)Oc1cccc2c1OC(C)(C)C2 [Example 12] |  |  |  |  | 40% | 55% | 75% | 85% | 70% | 85% | 100% |  |  |  |  |  |  |
| COC(=O)CCN(CCOCc1ccccc1)SN(C)C(=O)Oc1cccc2c1OC(C)(C)C2 [Example 13] |  |  |  |  | 40% | 55% | 70% | 85% | 65% | 85% | 100% |  |  |  |  |  |  |
| COC(=O)CCN(CCCCOc1ccccc1)SN(C)C(=O)Oc1cccc2c1OC(C)(C)C2 [Example 14] |  |  |  |  | 35% | 50% | 70% | 80% | 65% | 85% | 100% |  |  |  |  |  |  |
| COC(=O)CCN(CCCCCOc1ccccc1)SN(C)C(=O)Oc1cccc2c1OC(C)(C)C2 [Example 15] |  |  |  |  | 40% | 50% | 70% | 80% | 65% | 80% | 100% |  |  |  |  |  |  |
| COCCCN(CCC(=O)OC)SN(C)C(=O)ON=C(C)SC [Example 16] |  |  | 100% | 100% |  |  |  |  |  |  |  |  | 100% | 100% | 90% | 100% | 100% |
| COCCN(CCC#N)SN(C)C(=O)ON=C(C)SC [Example 17] |  |  | 85% | 95% |  |  |  |  |  |  |  |  | 100% | 100% | 80% | 95% | 100% |
| COCCN(CC#N)SN(C)C(=O)ON=C(C)SC [Example 18] |  |  | 100% | 100% |  |  |  |  |  |  |  |  | 100% | 100% | 80% | 95% | 100% |
| CCOC(=O)CN(CCOC)SN(C)C(=O)ON=C(C)SC [Example 19] |  |  | 90% | 100% |  |  |  |  |  |  |  |  | 100% | 100% | 90% | 100% | 100% |
| COC(=O)CCN(CCCOc1ccccc1)SN(C)C(=O)ON=C(C)SC [Example 20] |  |  | 90% | 95% |  |  |  |  |  |  |  |  | 100% | 100% | 80% | 90% | 100% |
| COC(=O)CCN(CCOC(C)C)SN(C)C(=O)ON=C(C)SC [Example 21] |  |  | 100% | 100% |  |  |  |  |  |  |  |  | 100% | 100% | 85% | 100% | 100% |
| COC(=O)CCN(CCOC1CCCCC1)SN(C)C(=O)ON=C(C)SC [Example 22] |  |  | 90% | 100% |  |  |  |  |  |  |  |  | 100% | 100% | 80% | 95% | 100% |
| CSC(C)=NOC(=O)N(C)SN(CCC#N)CCCOC(C)C [Example 23] |  |  | 85% | 95% |  |  |  |  |  |  |  |  | 100% | 100% | 80% | 95% | 100% |
| CCCCOC(=O)CCN(CCOC)SN(C)C(=O)ON=C(C)SC [Example 24] |  |  | 80% | 95% |  |  |  |  |  |  |  |  | 100% | 100% | 85% | 95% | 100% |
| COC(=O)CCN(CCCCOc1ccccc1)SN(C)C(=O)ON=C(C)SC [Example 25] |  |  | 80% | 90% |  |  |  |  |  |  |  |  | 100% | 100% | 85% | 90% | 100% |
